According to patent US20260345485A1, “INTRATHECAL NANOPARTICLE DELIVERY FOR TREATMENT OF LEPTOMENINGEAL TUMORS WITH CORE-SHELL PARTICLES MADE OF HYPERBRANCHED POLYGLYCEROL AND POLYLACTIC ACID” (priority 2022, published 2026):
Read-outs that look alike come from different tables or passages of the source.

Tests used:
[1] = tolerability / maximum tolerated dose after intrathecal dosing
Protocol: To investigate toxicity, healthy female nude mice were first administered a specific dose of either free BMN-673 or BMN-NPs ranging from 0.03 mg/kg to 1.25 mg/kg. The mice were monitored for weight-loss or other signs of distress, and if the dose was well tolerated, 4 additional mice were dosed and monitored (n=5).
Toxicology studies were conducted in healthy female nude mice to characterize the safety of BMN-NPs in vivo. […] Increasing doses of either BMN-NP or free BMN-673 were administered to animals. Body weight loss and overall animal health were closely monitored.

[2] = hematological toxicity after intrathecal dosing; settings: for blood cell counts: at MTD
Protocol: For hematological analysis, healthy nude mice (n=5 per time point) were administered either free BMN-673 (0.05 mg/kg) or BMN-NPs (0.5 mg/kg). At 3 days and 7 days post administration, 100 μL of blood was drawn via cardiac puncture using 15 μL EDTA-coated tubes. Levels of blood cell counts were measured using HEMA VET® HV950 multispecies hematologic analyzer (Drew Scientific, Oxford, CT, USA). Spleens and livers were harvested, fixed in formalin overnight, and H&E stained for histopathological evaluation.
To further test systemic toxicity differences between BMN-NPs and free BMN, red blood cells, white blood cells, and platelet levels were monitored in mice at day 3 and day 7 following two bi-weekly administrations at MTD (FIG. 5C).

DAOY cells [3] = experiment: DAOY intracisternal xenograft, single-dose treatment; assay type: in vivo, J:Nu mice; settings: single dose 0.1 mg/kg
Protocol: Intra-cisternal transplantation of DAOY cells stably expressing luciferase was used for in vivo studies. A surgical catheter was implanted into their cisterna magna, and used for both cellular implantation and IT dosage during treatment. Mice were treated when their tumoral luminescence burden was detectable at […] BLI (unit), 7 days post-implantation. Mice were treated once, at the same dose level of 0.1 mg/kg with either BMN NPs or free BMN-673 (FIG. 7A).

DAOY cells [4] = experiment: DAOY intracisternal xenograft, twice-weekly treatment; settings: 0.25 mg/kg BMN-NPs or 0.03 mg/kg free BMN-673
Protocol: DAOY cells (ATCC) were inoculated in 8 week J:Nu female mice at 10^5 cells suspended in 6 μL of DPBS. Tumor growth was followed by luminescence imaging twice a week, implantation. For luminescence imaging, mice were injected with 200 μL of a solution of D-Luciferin (15 mg/ml, Caliper Life Science) and imaged 5 minutes after injection using an IVIS200 in vivo imaging system (Xenogen, Caliper Life Science). An image showing light intensity (photons/second) was generated and the signal in each mouse was quantified using Living Image 4.0 software (Xenogen). On day 7 after tumor injection, all mice were randomized and treated with BMN-673 loaded NPs or free BMN-673 drug either once a week or bi-weekly for two weeks. Tumors were monitored for regression or progression with BLI, and left until neurological symptoms appeared or humane endpoint was reached (slow motion, >20% weight lose).
This study was repeated using twice-weekly dosing of 0.25 mg/kg of BMN-NPs or 0.03 mg/kg for free BMN-673 (FIGS. 7D-7F).

[5] = tested on: DAOY, D341, and D283 cells; experiment: drug combination synergy (Loewe model, CellTiter-Glo viability); assay type: cell-based
D341 cells = experiment: D341 xenograft with existing spinal metastasis; assay type: in vivo, mice
Protocol: In the D341 model, most mice develop spinal metastasis that is detectable by IVIS imaging within 7 days of inoculation, so it was tested whether BMN-NPs and free BMN were efficacious against existing spinal metastasis by starting treatment at day 7 in the presence of leptomeningeal metastasis. […] This therapy was improved with a temozolomide (TMZ) combination approach. The synergy between TMZ and PARPi is well documented in vitro, as PARP1 trapping sensitizes cells to the DNA methylation mechanism of TMZ, but in vivo, a reduction in the PARPi dose is necessary to prevent acute toxicity.

PARP1 = settings: cited from earlier work
[6] = assay type: in vivo; settings: i.v., after 20 minutes, tumor-bearing mice
Protocol: CNS retention of ^89Zr-DFO-NPs was assessed in tumor-bearing mice. A leptomeningeal metastatic medulloblastoma model was administered DAOY cells stably expressing luciferase by IT injection into the CM. […] Two mice were injected intravenously with Gd-DTPA, and imaged via MRI after 20 minutes.

[7] = tested on: medulloblastoma cell line D283; settings: 1 micromolar Olaparib with radiation; cited from earlier work
[8] = tested on: breast, prostate and ovarian cancer; settings: clinical trials; cited from earlier work
[9] = combined with BMN-673, across all cell lines

With `Cn1ncnc1[C@H]1c2n[nH]c(=O)c3cc(F)cc(c23)N[C@@H]1c1ccc(F)cc1` [BMN-673, talazoparib] as the compound, how does the body weight loss ([1]; 0.03 mg/kg twice a week, IT) read?
Its body weight loss is “less than 10%”.

What about the body weight loss ([1]; 0.05 mg/kg, single IT dose) of the same compound?
The body weight loss was “less than 15%”.

What about the “dose above which toxicity-related symptoms developed (lethargy, labored breathing, death)” value ([1]; IT) of the same compound?
The value was “greater than 0.06 mg/kg”.

And the LD50 ([1]; mouse, in vivo)?
Its LD50 is 0.125 mg/kg.

And the MTD ([1]; mouse, in vivo)?
The MTD was 0.05 mg/kg.

What about the “lethal dose (lethal at any dose at or higher than)” value ([1]; single IT dose, J:Nu mice) of the same compound?
The value was at least 0.06 mg/kg.

What about the blood cell counts ([2]; 3 days post-treatment) of the same compound?
Its blood cell counts is “a decrease in all leukocytes except for monocytes, and also showed a reduction in platelet count”.

And the blood cell counts ([2]; by 7 days)?
The blood cell counts was “did not show an improvement outside of basophil count”.

What about the blood cell levels ([2]; two bi-weekly administrations, 0.05 mg/kg/week free BMN, day 3 to day 7) of the same compound?
Its blood cell levels is “progressive leukopenia and thrombocytopenia at day 3 which did not improve appreciably at day 7”.

What about the “body weight loss versus BMN-NP group” value (DAOY cells [3]) of the same compound?
The value was “lost significantly more weight than the BMN-NP group”.

And the “mice with tumor reduction benefit” value (DAOY cells [3])?
The value was “one out five”.

What about the tumor response (DAOY cells [4]) of the same compound?
Its tumor response is “tumors continued to progress with treatment of free drug”.

What about the “synergy with TMZ (combinatorial index)” value ([5]; Loewe synergy model, with temozolomide) of the same compound?
Its value is “high levels of synergy”.

And the “cell viability compared to BMN-673 alone” value ([5]; incremental log-fold increases in BMN-673 in presence of TMZ)?
Its value is “decreased viability”.

And the “effect on cerebral and spinal tumor burden” value (D341 cells; four repeat doses, free BMN-673 at equitoxic dose, start day 7)?
The value was “no effect”.

And the tolerability (D341 cells; in combination with temozolomide)?
The tolerability was “not tolerated at even the lowest doses of BMN-673”.

And the PARP1 trapping (PARP1)?
Its PARP1 trapping is “potent PARP1 trap”.

With `O=P1(N(CCCl)CCCl)NCCCO1` (stereo not shown) [Cyclophosphamide] as the compound, how does the “synergy with BMN-673” value [5] read?
Its value is “did not show consistent synergist action”.

Which “signal in the brain by MRI” value [6] does the source give for `O=C(O)CN(CCN(CC(=O)O)CC(=O)O)CCN(CC(=O)O)CC(=O)O.[Gd+3]` [Gd-DTPA] here?
The value was “no detectable Gd-DTPA signal in the brain”.

With `CCc1c2c(nc3ccc(OC(=O)N4CCC(N5CCCCC5)CC4)cc13)-c1cc3c(c(=O)n1C2)COC(=O)[C@]3(O)CC` [Irinotecan] as the compound, how does the “synergy with BMN-673” value [5, 9] read?
Its value is “did not show consistent synergist action”.

For `O=NN(CCCl)C(=O)NC1CCCCC1` [Lomustine], which “synergy with BMN-673” value [5, 9] is on record?
Its value is “did not show consistent synergist action”.

For `O=C(c1cc(Cc2n[nH]c(=O)c3ccccc23)ccc1F)N1CCN(C(=O)C2CC2)CC1` [Olaparib, olaparib], which “DNA double stranded breaks” value [7] is on record?
The value was “high levels of DSB”.

And the “anti-tumour effect and side effects” value [8]?
Its value is “anti-tumour effect and side effects of grade 1 or 2”.

For `CC[C@@]1(O)C(=O)OCc2c1cc1n(c2=O)Cc2cc3c(CN(C)C)c(O)ccc3nc2-1` [Topotecan], which “synergy with BMN-673” value [5, 9] is on record?
The value was “did not show consistent synergist action”.

With `C[C@]1(c2nc3c(C(N)=O)cccc3[nH]2)CCCN1` [veliparib] as the compound, how does the PARP1 trapping (PARP1) read?
Its PARP1 trapping is “relatively poor PARP1 trapping ability”.
